The text below walks through data of patent US9145411B2, “Substituted amino-pyrimidine derivatives” (Asana Biosciences, LLC, priority 2012, dated 2015).

The target of one assay is PI3 kinase isoform β (Homo sapiens, UniProt P42338). Kind of assay: PI3 Kinase TR-FRET assay, isoform β. The following applies: read-out: inhibition of PI3 kinase isoform β, IC50. It is filed as biochemical. As to the method: (§1) The ability of compounds of the invention to inhibit PI3K activity was determined in a homogeneous TR-FRET assay using a PI3K assay kit (Millipore, USA; cat #33-016) according to manufacturer's instructions. PI3-Kinases (isoforms α, β, γ and δ) catalyze the phosphorylation of phosphatidylinositol, PIP2 to PIP3 in the presence of ATP and Mg^2+. The PIP3 product is detected by displacement of biotin-PIP3 from an energy transfer complex consisting of Europium labeled anti-GST monoclonal antibody, a GST-tagged PH domain, biotinylated PIP3 and Streptavidin-APC. Excitation of Europium in the complex results in an energy transfer to the APC and a fluorescence emission at 665 nm. The PIP3 product displaces biotin-PIP3 from the complex resulting in a loss of energy transfer and thus a decrease in signal.
To test for the ability of compounds to inhibit the activity of PI3Kα (wild-type), exemplary compounds of formula (I) were dissolved in DMSO and directly distributed into 384-well plates at a volume of 0.5 μL. […] Fluorescence was measured at 615 and 665 nm upon excitation at 340 nm in a Victor™ V5 fluorometer (Perkin Elmer, USA). The fluorescence emission ratio at 665 to 615 nm, proportional to the kinase activity, was plotted against the compound concentration to generate dose-response curves and IC50 values were determined using GraphPad Prism® 5 software. […]

The next assay has as its system pAkt(T308). Description: In-cell Western assay, pAkt(T308), PC3 cells. The assay is classed as cell-based. The following applies: Homo sapiens, PC-3, 2 hours incubation. The gist of the method:
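PC3 cells, 22,000/well in Ham's F12K, exposed to serial compound dilutions for 2 h, then fixed and immunostained for each phospho-epitope. Eu-labelled secondary read by time-resolved fluorescence (ex 340, em 615 nm), corrected by Hoechst 33258 signal (ex 355, em 460 nm). IC50 from sigmoidal dose-response fit.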

A further assay concerns pAkt(S473). Description: In-cell Western assay, pAkt(S473), PC3 cells. The assay is classed as cell-based. The following applies: Homo sapiens, PC-3, 2 hours incubation. How it is done: (§2) Cells from human prostate cancer cell line PC3 (American Type Culture Collection (ATCC), Manassas, Va. 20108 USA) were seeded at an optimal density of 22,000 cell/well in 96-well plates containing Ham's F12K medium (90 μL) and incubated overnight. The compound dilutions were carried out in 100% DMSO followed by a dilution in the medium. Test compounds were added in serial dilutions to the wells and incubated for 2 hours. The cells were washed and fixed with 4% paraformaldehyde. After incubation at room temperature for 1 hour in the dark, blocking was done for 2 hours at room temperature. Primary antibodies for pAkt(S473) ([…] phosphorylated at serine 473), pAkt(T308) (Akt phosphorylated at threonine 308) and for pS6RP (S235/236) (phosphorylated at serine 235/236) (commercially available from Cell Signaling Technology®, whose protocol was followed for the in-cell western assay, were diluted to the required concentration and added to the corresponding wells followed by overnight incubation at 4° C. Eu-labeled rabbit (PE) (Perkin-Elmer USA catalog #AD0106) secondary antibody was added and incubated for 2 hours at room temperature. Delfia® enhancement solution (cat #1244-105, Perkin Elmer USA) was subsequently added to the plate before taking the reading at 615 nm with excitation wavelength of 340 nm, after which 0.5 μg/mL of Hoechst® 33258 dye (Catalog #86140-5, Sigma) was added to the plate and fluorescence emission was read at 460 nm with 355 nm excitation, to evaluate the correction factor. IC50 values were calculated using a sigmoidal dose-response curve fit in GraphPad Prism® v5 software.

Another assay addresses T1, mTOR kinase (Homo sapiens, UniProt P42345).
T1 construct: purchased Millipore, USA
Kind of assay: mTOR kinase TR-FRET assay. It is filed as biochemical. The note with it: 20 μM ATP. An outline of the steps: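 Test compounds were pre-incubated 60 min with mTOR (5 ng), then ULight-p70 S6K (Thr389) peptide (50 nM) and ATP (20 μM) were added in HEPES 50 mM pH 7.5, EGTA, MnCl2 3 mM. After 60 min at room temperature, EDTA stop and Eu-anti-phospho antibody TR-FRET (665/615 nm) gave IC50 from sigmoidal variable-slope fits.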

In the next assay the target is PI3 kinase isoform γ (Homo sapiens, UniProt P48736). Description: PI3 Kinase TR-FRET assay, isoform γ. It is filed as biochemical. The following applies: read-out: inhibition of PI3 kinase isoform γ, IC50. As to the method: as §1
(§3) To test for the ability of compounds to inhibit the activity of PI3Kα (wild-type), exemplary compounds of formula (I) were dissolved in DMSO and directly distributed into 384-well plates at a volume of 0.5 μL. 14.5 μL of P110/P85α/PIP2 mixture in buffer (obtained from the Millipore kit) containing MgCl2 (40 mM) and DTT (5 mM) was added to compound wells and incubated for 60 minutes at room temperature. P110/P85α was expressed in SF9 insect cells and purified nickel column extraction. Five ng of wild-type P110/P85α was used in the assay. The kinase reaction was started by the addition of ATP. The assay concentrations of both PIP2 and ATP were 10 μM. The reaction mixture was incubated for 30 minutes at room temperature and was terminated by the addition of stop mix and detection mix. Fluorescence was measured at 615 and 665 nm upon excitation at 340 nm in a Victor™ V5 fluorometer (Perkin Elmer, USA). The fluorescence emission ratio at 665 to 615 nm, proportional to the kinase activity, was plotted against the compound concentration to generate dose-response curves and IC50 values were determined using GraphPad Prism® 5 software.
(§4) The activity of PI3 kinase isoforms β, γ and δ were assayed in a similar manner to the assay protocol described above for PI3Kα, by substituting the appropriate p110/p85 isoform for the p110α/p85α. Compounds of formula (I) caused inhibition of PI3 kinase isoforms β, γ and δ as determined by these assays. For example, the compounds of Examples 3 and 21 each caused inhibition of PI3 kinase isoform β with IC50 values<500 nM. The compounds of Examples 3, 7, 21, 47, 48 and 49 each caused inhibition of PI3 kinase isoform γ with IC50 values<500 nM. The compounds of Example 3, 7, 47, 48, and 49 caused inhibition of PI3 kinase isoform δ with IC50 values<1 μM.

The subject of the next assay is PC3 cells. Kind of assay: XTT assay for cell viability, PC3 cells. It is filed as cell-based. The following applies: Homo sapiens, PC-3; PC3 cell proliferation, 96 hours. An outline of the steps:
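Log-phase PC3 cells (1000/well) were seeded for 24 h, then exposed to serially diluted compounds (DMSO dilutions) for 96 h. Viability was measured by XTT dye conversion at 37 °C, with absorbance read at 465 nm. EC50 was obtained from a sigmoidal dose-response fit.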

The target in another assay is PI3Kα mutation E545K (Homo sapiens, UniProt P42336, E545K). Description: PI3 Kinase TR-FRET assay, PI3Kα mutation E545K. The note with it: read-out: inhibition of PI3Kα mutation E545K, IC50. The assay is classed as biochemical. How it is done:
as §1, §3
(§5) The activity of PI3Kα mutations H1047R and E545K were assayed in a similar manner to the assay protocol described above for PI3Kα (wild type). The compounds of formula (I) caused inhibition of PI3Kα mutations H1047R (a mutation associated with breast and gastric cancers) and E545K (a mutation associated with colorectal tumors, glioblastomas, gastric cancers, breast cancers, and lung cancers). For example, each of the compounds of Example 3, 7, 21, 47, 48 and 49 caused inhibition of each of the PI3Kα mutations H1047R and E545K with IC50 values<50 nM.

In another assay the target is T2, PI3Kα (wild-type) (Homo sapiens, UniProt P42336).
T2 construct: made in house; host or cells: SF9 insect cells
T2 sequence (P42336 whole entry, species assumed): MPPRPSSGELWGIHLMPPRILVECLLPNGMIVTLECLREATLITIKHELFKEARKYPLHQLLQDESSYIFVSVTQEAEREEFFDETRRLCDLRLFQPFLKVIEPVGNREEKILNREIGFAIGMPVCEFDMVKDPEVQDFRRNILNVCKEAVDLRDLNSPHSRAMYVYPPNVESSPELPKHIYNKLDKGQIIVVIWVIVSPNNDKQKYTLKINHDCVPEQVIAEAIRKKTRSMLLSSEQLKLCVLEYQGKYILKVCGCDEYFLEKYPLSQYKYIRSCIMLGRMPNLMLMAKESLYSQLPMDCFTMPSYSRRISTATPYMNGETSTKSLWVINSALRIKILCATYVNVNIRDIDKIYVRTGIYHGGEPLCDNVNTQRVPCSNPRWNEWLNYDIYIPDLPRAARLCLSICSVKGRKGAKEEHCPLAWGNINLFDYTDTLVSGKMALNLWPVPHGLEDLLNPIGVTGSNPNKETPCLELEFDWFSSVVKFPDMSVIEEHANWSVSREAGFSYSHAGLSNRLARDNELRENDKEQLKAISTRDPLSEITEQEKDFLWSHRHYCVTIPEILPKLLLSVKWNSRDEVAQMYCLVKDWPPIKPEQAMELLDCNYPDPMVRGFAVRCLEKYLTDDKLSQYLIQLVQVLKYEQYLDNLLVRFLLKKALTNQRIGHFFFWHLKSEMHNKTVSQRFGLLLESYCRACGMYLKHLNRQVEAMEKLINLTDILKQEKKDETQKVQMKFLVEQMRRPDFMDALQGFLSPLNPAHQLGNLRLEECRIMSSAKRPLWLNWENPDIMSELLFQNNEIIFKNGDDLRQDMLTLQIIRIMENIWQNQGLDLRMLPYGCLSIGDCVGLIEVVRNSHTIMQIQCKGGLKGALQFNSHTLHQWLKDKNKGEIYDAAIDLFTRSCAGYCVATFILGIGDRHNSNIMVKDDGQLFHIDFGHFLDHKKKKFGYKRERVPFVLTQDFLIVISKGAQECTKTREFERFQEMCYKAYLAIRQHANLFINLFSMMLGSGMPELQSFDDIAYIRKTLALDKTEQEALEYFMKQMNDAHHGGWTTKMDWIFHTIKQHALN
T2 sequence (P27986 whole entry partner, species assumed): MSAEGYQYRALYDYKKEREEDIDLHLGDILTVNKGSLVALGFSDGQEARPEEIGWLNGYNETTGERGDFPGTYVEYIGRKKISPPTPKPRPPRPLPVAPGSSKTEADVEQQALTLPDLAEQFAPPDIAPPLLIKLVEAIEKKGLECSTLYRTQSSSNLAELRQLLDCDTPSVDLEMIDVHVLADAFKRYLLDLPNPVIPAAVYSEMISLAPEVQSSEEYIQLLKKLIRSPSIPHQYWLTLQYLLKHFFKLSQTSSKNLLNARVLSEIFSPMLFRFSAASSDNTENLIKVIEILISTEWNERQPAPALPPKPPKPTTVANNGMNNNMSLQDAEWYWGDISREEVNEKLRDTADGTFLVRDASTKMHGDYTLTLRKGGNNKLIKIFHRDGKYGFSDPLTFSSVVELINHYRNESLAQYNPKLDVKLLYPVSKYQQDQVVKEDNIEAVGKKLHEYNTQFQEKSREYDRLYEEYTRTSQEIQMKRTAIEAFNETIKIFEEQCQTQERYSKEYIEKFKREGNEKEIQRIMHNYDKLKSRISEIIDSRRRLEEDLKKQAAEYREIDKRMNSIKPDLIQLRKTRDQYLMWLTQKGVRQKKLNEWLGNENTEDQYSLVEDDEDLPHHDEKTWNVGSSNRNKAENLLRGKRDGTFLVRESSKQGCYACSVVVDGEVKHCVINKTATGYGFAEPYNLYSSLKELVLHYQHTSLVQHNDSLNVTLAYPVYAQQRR
Kind of assay: PI3 Kinase TR-FRET assay, PI3Kα (wild-type). The assay is classed as biochemical. The following applies: wild-type P110/P85α, 10 μM ATP. The gist of the method: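 Sf9-expressed, Ni-purified p110/p85α (5 ng) with PIP2 was preincubated with compound for 60 min at room temperature in buffer with 40 mM MgCl2 and 5 mM DTT. The reaction ran 30 min at room temperature with 10 μM PIP2 and 10 μM ATP. The TR-FRET 665/615 nm ratio was used to derive IC50 from dose-response curves.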

Another assay has as its target PI3Kα mutation H1047R (Homo sapiens, UniProt P42336, H1047R). Kind of assay: PI3 Kinase TR-FRET assay, PI3Kα mutation H1047R. The assay is classed as biochemical. The following applies: read-out: inhibition of PI3Kα mutation H1047R, IC50. How it is done: as §1, §3, §5
The next assay addresses PI3 kinase isoform δ (Homo sapiens, UniProt O00329). Kind of assay: PI3 Kinase TR-FRET assay, isoform δ. The assay is classed as biochemical. The following applies: read-out: inhibition of PI3 kinase isoform δ, IC50. How it is done: as §1, §3, §4
The subject of a further assay is pS6RP (S235/236). Kind of assay: In-cell Western assay, pS6RP (S235/236), PC3 cells. It is filed as cell-based. The following applies: Homo sapiens, PC-3, 2 hours incubation. As to the method:
as §2

The test system of another assay is U87MG tumor cells. Description: In vivo efficacy study (tumor growth suppression), U87MG xenograft. The note with it: U87MG xenograft mice, after 12 to 14 days of dosing, 50 mg/kg qd po.

pIC50: −log10 of the molar value.

Sequence of PI3Kα mutation H1047R (P42336 whole entry H1047R, canonical isoform): as the sequence (P42336 whole entry, species assumed) above, with H1047R counted along it
Sequence of PI3Kα mutation H1047R (P27986 whole entry partner, canonical isoform): as the sequence (P27986 whole entry partner, species assumed) above
Sequence of PI3 kinase isoform δ (O00329 whole entry, canonical isoform): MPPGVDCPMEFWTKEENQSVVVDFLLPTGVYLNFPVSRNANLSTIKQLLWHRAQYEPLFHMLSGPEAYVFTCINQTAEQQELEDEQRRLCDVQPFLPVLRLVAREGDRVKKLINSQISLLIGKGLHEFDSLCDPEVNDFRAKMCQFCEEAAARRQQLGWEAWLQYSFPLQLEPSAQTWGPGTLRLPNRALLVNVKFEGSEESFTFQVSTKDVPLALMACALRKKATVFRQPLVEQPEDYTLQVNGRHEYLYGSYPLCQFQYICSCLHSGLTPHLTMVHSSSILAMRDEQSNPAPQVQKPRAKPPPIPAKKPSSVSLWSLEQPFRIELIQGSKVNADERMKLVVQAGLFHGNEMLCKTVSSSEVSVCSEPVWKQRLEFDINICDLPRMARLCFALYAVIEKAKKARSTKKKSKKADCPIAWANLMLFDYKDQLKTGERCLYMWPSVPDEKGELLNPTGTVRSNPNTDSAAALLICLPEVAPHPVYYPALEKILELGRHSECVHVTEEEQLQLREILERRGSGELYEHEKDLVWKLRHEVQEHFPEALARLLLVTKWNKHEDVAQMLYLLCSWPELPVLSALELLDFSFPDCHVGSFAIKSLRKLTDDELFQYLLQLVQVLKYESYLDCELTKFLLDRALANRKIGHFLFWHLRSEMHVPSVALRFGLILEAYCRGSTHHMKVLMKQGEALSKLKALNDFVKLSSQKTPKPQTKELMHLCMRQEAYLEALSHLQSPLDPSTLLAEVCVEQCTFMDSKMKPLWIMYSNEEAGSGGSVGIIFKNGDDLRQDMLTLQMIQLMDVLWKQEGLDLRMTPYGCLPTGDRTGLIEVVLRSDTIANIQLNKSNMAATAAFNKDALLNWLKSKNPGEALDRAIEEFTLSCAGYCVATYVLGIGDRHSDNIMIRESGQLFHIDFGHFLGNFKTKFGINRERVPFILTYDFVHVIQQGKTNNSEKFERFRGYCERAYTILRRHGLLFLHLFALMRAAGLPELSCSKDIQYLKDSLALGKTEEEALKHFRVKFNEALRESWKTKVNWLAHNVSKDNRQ
Sequence of PI3 kinase isoform δ (P27986 whole entry partner, canonical isoform): as the sequence (P27986 whole entry partner, species assumed) above
T1 sequence (P42345 1362-2549 limits assumed): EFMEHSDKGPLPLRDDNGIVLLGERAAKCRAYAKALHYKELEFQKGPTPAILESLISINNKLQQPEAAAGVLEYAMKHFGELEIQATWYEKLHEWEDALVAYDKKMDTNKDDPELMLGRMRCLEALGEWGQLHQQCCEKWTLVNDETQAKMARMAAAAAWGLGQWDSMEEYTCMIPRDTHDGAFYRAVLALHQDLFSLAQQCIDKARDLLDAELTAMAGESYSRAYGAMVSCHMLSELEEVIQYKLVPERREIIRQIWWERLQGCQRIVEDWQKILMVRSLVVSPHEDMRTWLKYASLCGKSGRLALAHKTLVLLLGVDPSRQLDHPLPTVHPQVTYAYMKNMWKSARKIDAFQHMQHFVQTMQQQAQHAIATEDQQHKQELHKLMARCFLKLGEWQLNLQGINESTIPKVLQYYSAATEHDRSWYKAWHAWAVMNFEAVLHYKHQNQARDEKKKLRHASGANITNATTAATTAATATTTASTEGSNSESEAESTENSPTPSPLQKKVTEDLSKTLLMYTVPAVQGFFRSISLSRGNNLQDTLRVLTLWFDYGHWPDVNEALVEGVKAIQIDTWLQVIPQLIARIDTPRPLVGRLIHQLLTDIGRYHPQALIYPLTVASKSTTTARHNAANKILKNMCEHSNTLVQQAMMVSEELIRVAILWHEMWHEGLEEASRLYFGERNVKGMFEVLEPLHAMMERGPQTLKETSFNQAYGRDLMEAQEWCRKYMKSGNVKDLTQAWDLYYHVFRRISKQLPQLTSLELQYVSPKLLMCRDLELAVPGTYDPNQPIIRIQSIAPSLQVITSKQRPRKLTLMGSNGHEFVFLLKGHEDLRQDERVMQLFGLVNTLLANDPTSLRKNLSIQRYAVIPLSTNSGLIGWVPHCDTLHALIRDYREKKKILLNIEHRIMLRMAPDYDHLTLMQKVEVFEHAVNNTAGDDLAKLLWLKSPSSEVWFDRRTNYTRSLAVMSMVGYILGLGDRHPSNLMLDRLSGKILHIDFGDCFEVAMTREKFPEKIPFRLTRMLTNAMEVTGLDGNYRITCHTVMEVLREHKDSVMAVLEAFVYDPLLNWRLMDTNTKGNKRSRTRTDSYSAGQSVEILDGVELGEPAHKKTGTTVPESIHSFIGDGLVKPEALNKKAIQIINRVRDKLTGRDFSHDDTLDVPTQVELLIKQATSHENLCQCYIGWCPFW
Sequence of PI3Kα mutation E545K (P42336 whole entry E545K): as the sequence (P42336 whole entry, species assumed) above, with E545K counted along it
Sequence of PI3Kα mutation E545K (P27986 whole entry partner): as the sequence (P27986 whole entry partner, species assumed) above

Regarding `CS(=O)(=O)Nc1cccc(-c2cnc3c(N4CCOCC4)nc(-c4cnc(N)nc4)nc3c2)c1` [Example 21, N-(3-(2-(2-amino-pyrimidin-5-yl)-4-morpholinopyrido[3,2-d]-pyrimidin-7-yl)phenyl)-methanesulfonamide], the pIC50 was > 6.30 on PI3 kinase isoform β; 6.30 to 7.00 in the assay on pAkt(T308); 6.30 to 7.00 with pAkt(S473); > 7.30 against mTOR kinase; > 6.30 at PI3 kinase isoform γ; > 7.00 with PC3 cells. Further, the pIC50 on PI3Kα mutation E545K, on PI3Kα (wild-type) and on PI3Kα mutation H1047R was > 7.30 in each case.

Consider `C[C@H](O)C(=O)Nc1cccc(-c2cnc3c(N4CCOCC4)nc(-c4cnc(N)nc4)nc3c2)c1` [Example 47, (S)-N-(3-(2-(2-amino-pyrimidin-5-yl)-4-morpholinopyrido[3,2-d]pyrimidin-7-yl)phenyl)-2-hydroxypropanamide], for which the pIC50 at PI3 kinase isoform δ is > 6.00; in the assay with pAkt(T308) it was > 7.00; on mTOR kinase it was > 7.30; on PI3 kinase isoform γ, > 6.30; in the assay on PC3 cells it was 6.30 to 7.00; on PI3Kα mutation E545K it was > 7.30. For the same molecule, the pIC50 against PI3Kα (wild-type) and on PI3Kα mutation H1047R was > 7.30 throughout.

On to `CC(C)(O)C(=O)Nc1cccc(-c2cnc3c(N4CCOCC4)nc(-c4cnc(N)nc4)nc3c2)c1` [Example 48, N-(3-(2-(2-amino-pyrimidin-5-yl)-4-morpholinopyrido[3,2-d]pyrimidin-7-yl)phenyl)-2-hydroxy-2-methylpropanamide], for which the pIC50 was > 6.00 on PI3 kinase isoform δ; 6.30 to 7.00 with pAkt(T308); > 7.30 against mTOR kinase; > 6.30 at PI3 kinase isoform γ; 6.30 to 7.00 in the assay with PC3 cells; > 7.30 at PI3Kα mutation E545K. In addition, the pIC50 on PI3Kα (wild-type) and on PI3Kα mutation H1047R was > 7.30 in each case.

As for `CC(C)(C#N)C(=O)Nc1cccc(-c2cnc3c(N4CCOCC4)nc(-c4cnc(N)nc4)nc3c2)c1` [Example 49, N-(3-(2-(2-amino-pyrimidin-5-yl)-4-morpholinopyrido[3,2-d]pyrimidin-7-yl)phenyl)-2-cyano-2-methylpropanamide], the pIC50 is > 6.00 at PI3 kinase isoform δ; 6.30 to 7.00 in the assay with pAkt(T308); > 7.00 in the assay on pAkt(S473); > 7.30 on mTOR kinase; > 6.30 at PI3 kinase isoform γ; > 7.00 in the assay on PC3 cells. Besides, the pIC50 in the assay with pS6RP (S235/236) is > 7.00; on PI3Kα mutation E545K it was > 7.30; at PI3Kα (wild-type), > 7.30; at PI3Kα mutation H1047R, > 7.30.

Turning to `CC(=O)OC(C)OC(=O)N(C(C)=O)c1cccc(-c2cnc3c(N4CCOCC4)nc(-c4cnc(N)nc4)nc3c2)c1` (stereo not drawn) [Example 120, 1-((acetyl(3-(2-(2-amino-pyrimidin-5-yl)-4-morpholinopyrido[3,2-d]-pyrimidin-7-yl)-phenyl)carbamoyl)oxy) ethyl acetate], the “tumor growth inhibition relative to vehicle control group” value with U87MG tumor cells was “more than 70%”.
